Reference: patent US12077501B2, “Compounds and compositions for intracellular delivery of agents” (ModernaTX, Inc., priority 2017, dated 2024)

Assays:
[1] = Particle size and polydispersity index of nanoparticle compositions (Zetasizer Nano ZS); format: physicochemical; details: Formulated with lipid:Chol:DOPE:PEG 1 40:38.5:20:1.5
Protocol: A Zetasizer Nano ZS (Malvem Instruments Ltd, Malvem, Worcestershire, UK) can be used to determine the particle size, the polydispersity index (PDI) and the zeta potential of the nanoparticle compositions in 1×PBS in determining particle size and 15 mM PBS in determining zeta potential.

[2] = Encapsulation efficiency of RNA (QUANT-IT RIBOGREEN RNA assay); format: physicochemical; details: Formulated with lipid:Chol:DOPE:PEG 1 40:38.5:20:1.5
Procedure, shortened: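 Samples diluted to about 5 μg/mL RNA in TE buffer pH 7.5, treated with buffer or 2% Triton X-100 for 15 min at 37° C, then stained with RiboGreen (1:100). Fluorescence at about 480/520 nm, blank-subtracted; free RNA fraction is intact over Triton-disrupted signal.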

hEPO expression = assay: hEPO (miR126 + miR142) mRNA expression, Tables 8b-8e; format: in vivo
[3] = Lipid clearance: % dose remaining, Tables 7c and 8b-8e (species not given); format: in vivo
Description: In contrast, hEPO expression in rats induced by administration of a nanoparticle composition including a compound according to one of formulae (I), (Ia1)-(Ia6), (Ib), (II), (IIa), (III), and (IIIa) was substantially […] than that measured for MC3. […] Tables 7c and 7d show additional protein expressions and clearance data from compositions with various compounds disclosed herein as compared to with MC3. Tables 7e, 7f and 7g show hEPO expression data in CD-1 mice at a dose of 0.5 mpk.

[4] = Purity at start and after storage for 65 h at 25 °C or 37 °C; format: physicochemical

| Structure (SMILES) | PDI ([1]; Table 1e) | Size (nm) ([1]; Table 1e) | EE (%) ([2]; Table 1e) | % Dose Remaining (liver, 24 h) ([3]; Table 8c) | PDI ([1]; Table 1d) | Size (nm) ([1]; Table 1d) | EE (%) ([2]; Table 1d) | % Dose Remaining (liver, 24 h) ([3]; Table 8b) | AUC (hEPO expression; Table 8c) | AUC (hEPO expression; Table 8b) | further results |
| --- | --- | --- | --- | --- | --- | --- | --- | --- | --- | --- | --- |
| CCCCCCCCCN(CCCCCCCCC)CCN(CCCCCCCCC)CC(=O)OC(C)CC(C)OC(=O)CN(CCCCCCCCC)CCCCCCCCC (stereo not drawn) [Compound 189, 4-((N-(2-(Dinonylamino)ethyl)-N-nonylglycyl)oxy)pentan-2-yl dinonylglycinate] | – | – | – | – | – | – | – | – | – | – | PDI ([1]; Table 1f): 0.16; Size (nm) ([1]; Table 1f): 70.1 nm; EE (%) ([2]; Table 1f): 98.3%; AUC (hEPO expression; Table 8d): 1.15e+07 pg·h/mL; % Dose Remaining (liver, 24 h) ([3]; Table 8d): 91.63% |
| CCCCCCCCCOC(=O)CCCCCCCN(CCCCCCCC(=O)OC(CCCCCCCC)CCCCCCCC)CCCCC(=O)N(C)CCCN(C)C(=O)CCCCN(CCCCCCCC(=O)OCCCCCCCCC)CCCCCCCC(=O)OC(CCCCCCCC)CCCCCCCC [Compound 182, Di(heptadecan-9-yl) 15,19-dimethyl-9,25-bis(8-(nonyloxy)-8-oxooctyl)-14,20-dioxo-9,15,19,25-tetraazatritriacontanedioate] | – | – | – | – | – | – | – | – | – | – | PDI ([1]; Table 1f): 0.28; Size (nm) ([1]; Table 1f): 97.7 nm; EE (%) ([2]; Table 1f): 98.8%; AUC (hEPO expression; Table 8d): 6.06e+07 pg·h/mL; % Dose Remaining (liver, 24 h) ([3]; Table 8d): 1.64% |
| CCCCCCCCCOC(=O)CCCCCCCN(CCCCCCCC(=O)OC(CCCCCCCC)CCCCCCCC)CCCCC(=O)N(C)CCN(C)C(=O)CCCCN(CCCCCCCC(=O)OCCCCCCCCC)CCCCCCCC(=O)OC(CCCCCCCC)CCCCCCCC [Compound 183, Di(heptadecan-9-yl) 15,18-dimethyl-9,24-bis(8-(nonyloxy)-8-oxooctyl)-14,19-dioxo-9,15,18,24-tetraazadotriacontanedioate] | – | – | – | – | – | – | – | – | – | – | PDI ([1]; Table 1f): Multimodal; Size (nm) ([1]; Table 1f): 128.9 nm; EE (%) ([2]; Table 1f): 99.1%; AUC (hEPO expression; Table 8d): 6.53e+07 pg·h/mL; % Dose Remaining (liver, 24 h) ([3]; Table 8d): 1.87% |
| CCCCCCCCCN(CCCCCCCCC)CCN(CCCCCCCCC)CC(=O)NCCNC(=O)CN(CCCCCCCCC)CCCCCCCCC [Compound 153, 2-(dinonylamino)-N-(2-(2-((2-(dinonylamino)ethyl)(nonyl)amino)acetamido)ethyl)acetamide] | – | – | – | – | 0.23 | 116.7 nm | 97.2% | 84.71% | – | 5.62e+07 pg·h/mL | – |
| CCCCCCCCCOC(=O)CCCCCCCN(CCCCCCCC(=O)OC(CCCCCCCC)CCCCCCCC)CCCCC(=O)N1CCN(C(=O)CCCCN(CCCCCCCC(=O)OCCCCCCCCC)CCCCCCCC(=O)OC(CCCCCCCC)CCCCCCCC)CC1 [Compound 184, Di(heptadecan-9-yl) 8,8′-((piperazine-1,4-diylbis(5-oxopentane-5,1-diyl))bis((8-(nonyloxy)-8-oxooctyl)azanediyl))dioctanoate] | – | – | – | – | – | – | – | – | – | – | PDI ([1]; Table 1f): Multimodal; Size (nm) ([1]; Table 1f): 107.6 nm; EE (%) ([2]; Table 1f): 99.1%; AUC (hEPO expression; Table 8d): 4.21e+08 pg·h/mL; % Dose Remaining (liver, 24 h) ([3]; Table 8d): 2.23% |
| CCCCCCCCCN(CCCCCCCCC)CCCCCCCCN(CCCCCCCCC)CCN(CCCCCCCCC)CCCCCCCCC [Compound 160, N^1-(2-(dinonylamino)ethyl)-N^1,N^8,N^8-trinonyloctane-1,8-diamine] | – | – | – | – | 0.25 | 115.5 nm | 97.3% | 60.54% | – | 219000 pg·h/mL | – |
| CCCCCCCCCN(CCCCCCCCC)CCN(CCCCCCCCC)CC(=O)N(CC)CCN(CC)C(=O)CN(CCCCCCCCC)CCCCCCCCC [Compound 157, 2-(dinonylamino)-N-(2-(2-((2-(dinonylamino)ethyl)(nonyl)amino)-N-ethylacetamido)ethyl)-N-ethylacetamide] | – | – | – | – | 0.11 | 89.8 nm | 98.3% | 42.48% | – | 2.08e+08 pg·h/mL | – |
| CCCCCCCCCCCCCCN(CCCOC(=O)CCCCCCCCC)CC(=O)N(C)CCN(C)C(=O)CN(CCCCCCCCC)CCN(CCCCCCCCC)CCCCCCCCC [Compound 158, 7,10-dimethyl-13,16-dinonyl-6,11-dioxo-4-tetradecyl-4,7,10,13,16-pentaazapentacosyl Decanoate] | – | – | – | – | 0.20 | 124.2 nm | 97.8% | 0.30% | – | 1.03e+07 pg·h/mL | – |
| CCCCCCCCCN(CCCCCCCCC)CCN(CCCCCCCCC)CC(=O)N1CCN(C(=O)CN(CCCCCCCCC)CCCCCCCC(=O)OC)CC1 [Compound 44, Methyl 8-((2-(4-(N-(2-(dinonylamino)ethyl)-N-nonylglycyl)piperazin-1-yl)-2-oxoethyl)(nonyl)amino)octanoate] | – | – | – | – | – | – | – | – | – | – | Purity % 25° C. no shaking t = 65 h ([4]; after storage for 65 h at 25° C., no shaking): 92%; Purity % 37° C. shaking t = 65 h ([4]; after storage for 65 h at 37° C., shaking): 91%; Purity % t = 0 h ([4]; beginning of the study, 25° C.): 90% |
| CCCC/C=C\CCCCCCCCN(CCCOC(=O)CCCCCCCCC)CC(=O)N1CCN(C(=O)CN(CCCCCCCCC)CCN(CCCCCCCCC)CCCCCCCCC)CC1 [Compound 140, (Z)-3-((2-(4-(N-(2-(Dinonylamino)ethyl)-N-nonylglycyl)piperazin-1-yl)-2-oxoethyl)(tetradec-9-en-1-yl)amino)propyl Decanoate] | – | – | – | – | 0.14 | 131.1 nm | 86.9% | 1.66% | – | 4.55e+07 pg·h/mL | – |
| CCCCC/C=C\CCN(CC/C=C\CCCCC)CCN(CC/C=C\CCCCC)CC(=O)N(C)CCN(C)C(=O)CN(CCCCCCCCC)CCCCCCCCC [Compound 154, 2-((2-(di((Z)-non-3-en-1-yl)amino)ethyl)((Z)-non-3-en-1-yl)amino)-N-(2-(2-(dinonylamino)-N-methylacetamido)ethyl)-N-methylacetamide] | – | – | – | – | 0.18 | 103.3 nm | 97.8% | 78.44% | – | 1.37e+08 pg·h/mL | – |
| CCCCCCCCCCCCCCN(C/C=C\COC(=O)CCCCCCCC)CC(=O)N1CCN(C(=O)CN(CCCCCCCCC)CCN(CCCCCCCCC)CCCCCCCCC)CC1 [Compound 141, (Z)-4-((2-(4-(N-(2-(dinonylamino)ethyl)-N-nonylglycyl)piperazin-1-yl)-2-oxoethyl)(tetradecyl)amino)but-2-en-1-yl nonanoate] | – | – | – | – | 0.15 | 131.5 nm | 97.6% | 1.41% | – | 2.7e+07 pg·h/mL | – |
| CCCCCCCCCOC(=O)CCCCCCCN(CCCCCCCC(=O)OC(CCCCCCCC)CCCCCCCC)CCCCC(=O)OCCOC(=O)CCCCN(CCCCCCCC(=O)OCCCCCCCCC)CCCCCCCC(=O)OC(CCCCCCCC)CCCCCCCC [Compound 185, Di(heptadecan-9-yl) 8,8′-(11,24,29,42-tetraoxo-10,25,28,43-tetraoxa-19,34-diazadopentacontane-19,34-diyl)dioctanoate] | – | – | – | – | – | – | – | – | – | – | PDI ([1]; Table 1f): 0.27; Size (nm) ([1]; Table 1f): 98.4 nm; EE (%) ([2]; Table 1f): 98.6%; AUC (hEPO expression; Table 8d): 2.23e+07 pg·h/mL; % Dose Remaining (liver, 24 h) ([3]; Table 8d): 18.21% |

Continued, in another order:

| PDI ([1]; Table 1e) | Size (nm) ([1]; Table 1e) | EE (%) ([2]; Table 1e) | % Dose Remaining (liver, 24 h) ([3]; Table 8c) | PDI ([1]; Table 1d) | Size (nm) ([1]; Table 1d) | EE (%) ([2]; Table 1d) | % Dose Remaining (liver, 24 h) ([3]; Table 8b) | Structure (SMILES) | AUC (hEPO expression; Table 8c) | AUC (hEPO expression; Table 8b) | further results |
| --- | --- | --- | --- | --- | --- | --- | --- | --- | --- | --- | --- |
| 0.23 | 88.6 nm | 98.1% | 65.12% | – | – | – | – | CCCCCCCCCCCCCCNC(=O)CN(CCCCCCCCC)CCN(CCCCCCCCC)CCCCCCCCC [Compound 163, 2-((2-(dinonylamino)ethyl)(nonyl)amino)-N-tetradecylacetamide] | 1.01e+07 pg·h/mL | – | – |
| 0.24 | 59.4 nm | 97.1% | 75.26% | – | – | – | – | CCCCCCCCCOC(=O)CN(CCCCCCCCC)CCN(CCCCCCCCC)CCCCCCCCC [Compound 166, Nonyl N-(2-(dinonylamino)ethyl)-N-nonylglycinate] | 0 pg·h/mL | – | – |
| 0.17 | 60.0 nm | 97.3% | 2.74% | – | – | – | – | CCCCCCCCCN(CCCCCCCCC)CCN(CCCCCCCCC)CCOC(=O)CCCCCCCC [Compound 168, 2-((2-(Dinonylamino)ethyl)(nonyl)amino)ethyl Nonanoate] | 0 pg·h/mL | – | – |
| 0.22 | 64.5 nm | 97.6% | 89.60% | – | – | – | – | CCCCCCCCCCCCCCOC(=O)CN(CCCCCCCCC)CCN(CCCCCCCCC)CCCCCCCCC [Compound 167, Tetradecyl N-(2-(dinonylamino)ethyl)-N-nonylglycinate] | 0 pg·h/mL | – | – |
| 0.24 | 72.5 nm | 97.6% | 0.30% | – | – | – | – | CCCCCCCCCCCCCC(=O)OCCN(CCCCCCCCC)CCN(CCCCCCCCC)CCCCCCCCC [Compound 169, 2-((2-(Dinonylamino)ethyl)(nonyl)amino)ethyl Tetradecanoate] | 0 pg·h/mL | – | – |
| 0.22 | 107.8 nm | 97.0% | 0.13% | – | – | – | – | CCCCCCCCCN(CCCCCCCCC)CCN(CCCCCCCCC)CC(=O)NCCCCOC(=O)CCCC [Compound 165, 4-(2-((2-(dinonylamino)ethyl)(nonyl)amino)acetamido)butyl pentanoate] | 9.38e+07 pg·h/mL | – | – |
